Test results published in publication PMC12439166, “Dietary flavonoids form supramolecular assemblies, alter biochemistry, and enhance cell resilience” (Frontiers in Nutrition, 2025).

What was measured:
Lysozyme = target: T1, Lysozyme (Gallus gallus, UniProt P00698); assay: Lysozyme assay (Biovision Lysozyme inhibitor screening kit K237); type: biochemical; settings: 10 concentrations, 5 nM to 100 μM, result in words
T1 construct: purchased Biovision K237
Procedure: (§1) Enzyme screens were performed by SAMDI Tech (contract research organization); enzyme assays were performed in a 20 μL volume in 384-well low-volume polypropylene microtiter plates (Greiner Bio-One) at room temperature. The enzymes [Arginase 1 (ARG1), Lysine demethylase 4C (KDM4C), MAP/microtubule affinity-regulating kinase 4 (MARK4), Histone-Lysine N-methyltransferase (NSD2), Tyrosine-protein phosphatase non-receptor type 1 (PTP1B), and Sirtuin-3 (SIRT3)] were incubated with compounds for 30 min prior to initiation of the reaction by the addition of substrate and cofactors (if required). Reactions were quenched by the addition of 0.5% formic acid (final) with subsequent neutralization using 1% sodium bicarbonate (final). For SAMDI MS analysis, 2 μL of each reaction was transferred using a 384-channel automated liquid handler to SAMDI biochip arrays functionalized with a neutravidin-presenting self-assembled monolayer. The preparation of SAMDI biochip arrays has been previously described ([41], [42], [49]). The SAMDI arrays were incubated for 1 h in a humidified chamber to allow specific immobilization of the biotinylated substrates and products; they were then purified by washing with ultrafiltered water (50 μL/spot) and dried with compressed air. A matrix comprising α-Cyano-4-hydroxycinnamic acid in 80% acetonitrile: 20% aqueous ammonium citrate (10 mg/mL final) was applied in an automated format by dispensing 50 nL to each spot in the array. SAMDI MS was performed using reflector positive mode on an AB Sciex TOF-TOF 5800 System (AB Sciex, Framingham, MA) with 400 shots/spot analyzed in a random raster sampling. For data analysis, the area under the curves (AUCs) for the product peak and substrate peak were calculated using the TOF/TOF Series Explorer (AB Sciex), and the amount of product formed was calculated using the equation AUC product / (AUC product + AUC Substrate). Negative controls were pre-quenched with 0.5% formic acid (final). Lysozyme assay was performed using the manufacturer’s instructions (Biovision Lysozyme inhibitor screening kit K237). Flavonoids were acquired from Sigma-Aldrich and Seleckchem.
(§2) IC50 values of enzyme inhibition. Inhibition of the enzymes was measured at 10 concentration values in the range of 5 nM to 100 μM for each compound and enzyme, with two technical replicates; the percent inhibition values were determined by SAMDI software. Sigmoidal curves were fitted to the percent inhibition vs log10 (concentration) series, and IC50 values were determined at the crossing point of 50 % inhibition. Manual verification of the fits and the IC50 values was performed. The resulting IC50 values fell into the following categories: (a) within the assayed range of 5nM to 100μM (26 % of fits), (b) IC50 could be extrapolated, IC50 > 100μM (12 % of fits), or (c) fitting was not possible because all values were at baseline (62 % of fits). Compound efficacy ranking. First, for each IC50 value per compound and enzyme, a Z-score was calculated based on the log10 (IC50) value and that of the compounds that produced a successful readout for enzyme i , according to Equation 1: […]

[1] = target: T2, Histone-Lysine N-methyltransferase (NSD2) (Homo sapiens, UniProt O96028); assay: Enzyme activity assay (SAMDI-MS), NSD2; type: biochemical; settings: 10 concentrations, 5 nM to 100 μM, compounds incubated with enzyme 30 min, result in words
T2 sequence (O96028 1-1365): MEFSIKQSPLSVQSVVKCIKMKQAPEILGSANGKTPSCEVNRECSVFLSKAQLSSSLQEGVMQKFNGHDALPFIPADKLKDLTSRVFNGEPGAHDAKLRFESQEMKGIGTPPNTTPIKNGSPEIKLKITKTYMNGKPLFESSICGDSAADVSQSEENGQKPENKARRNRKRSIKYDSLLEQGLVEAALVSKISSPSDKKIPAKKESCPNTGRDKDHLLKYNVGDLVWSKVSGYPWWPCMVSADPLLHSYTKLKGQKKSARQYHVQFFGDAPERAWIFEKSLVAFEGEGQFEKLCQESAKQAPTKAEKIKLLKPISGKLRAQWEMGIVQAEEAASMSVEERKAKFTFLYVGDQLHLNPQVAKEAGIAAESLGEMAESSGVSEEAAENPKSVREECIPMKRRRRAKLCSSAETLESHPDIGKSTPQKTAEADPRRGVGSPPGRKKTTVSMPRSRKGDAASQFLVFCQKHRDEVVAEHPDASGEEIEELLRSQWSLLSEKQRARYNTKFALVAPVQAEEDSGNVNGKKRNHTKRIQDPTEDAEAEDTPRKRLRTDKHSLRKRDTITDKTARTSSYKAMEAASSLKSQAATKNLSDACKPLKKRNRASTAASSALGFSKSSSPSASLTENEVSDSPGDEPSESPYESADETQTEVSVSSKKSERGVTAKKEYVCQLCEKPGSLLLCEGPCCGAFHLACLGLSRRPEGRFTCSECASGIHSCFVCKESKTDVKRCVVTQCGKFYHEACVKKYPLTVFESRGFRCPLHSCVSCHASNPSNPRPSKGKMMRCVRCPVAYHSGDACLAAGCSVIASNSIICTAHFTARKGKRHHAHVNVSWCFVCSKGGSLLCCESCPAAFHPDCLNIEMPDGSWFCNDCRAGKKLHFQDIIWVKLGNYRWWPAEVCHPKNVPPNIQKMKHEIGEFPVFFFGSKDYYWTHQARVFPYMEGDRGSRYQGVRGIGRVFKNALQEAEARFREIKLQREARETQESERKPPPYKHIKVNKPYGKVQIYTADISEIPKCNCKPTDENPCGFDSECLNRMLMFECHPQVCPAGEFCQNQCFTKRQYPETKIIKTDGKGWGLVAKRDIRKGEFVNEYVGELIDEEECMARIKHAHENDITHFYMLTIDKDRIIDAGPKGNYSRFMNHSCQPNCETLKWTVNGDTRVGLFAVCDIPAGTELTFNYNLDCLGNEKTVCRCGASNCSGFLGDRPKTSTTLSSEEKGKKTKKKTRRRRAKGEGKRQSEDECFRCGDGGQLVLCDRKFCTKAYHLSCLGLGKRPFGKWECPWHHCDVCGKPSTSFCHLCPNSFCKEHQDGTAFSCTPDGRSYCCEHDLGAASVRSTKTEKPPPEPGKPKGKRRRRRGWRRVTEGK
Procedure: as §1, §2

T1 sequence (P00698 19-147): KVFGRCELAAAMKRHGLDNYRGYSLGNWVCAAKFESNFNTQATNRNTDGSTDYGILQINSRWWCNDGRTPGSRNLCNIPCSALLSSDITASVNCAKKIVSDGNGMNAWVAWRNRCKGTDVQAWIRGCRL

| SMILES | inhibition of enzyme activity, Lysozyme (Lysozyme) | inhibition of enzyme activity, NSD2 [1] | inhibition of enzyme activity, Lysozyme (Lysozyme; listed as Quercetin) | inhibition of enzyme activity, Lysozyme (Lysozyme; listed as Quercitin) | inhibition of enzyme activity, NSD2 ([1]; listed as Quercetin) | inhibition of enzyme activity, NSD2 ([1]; listed as Quercitin) |
| --- | --- | --- | --- | --- | --- | --- |
| O=c1c(O[C@@H]2O[C@H](CO)[C@@H](O)[C@H](O)[C@H]2O)c(-c2ccc(O)c(O)c2)oc2cc(O)cc(O)c12 [isoquercitrin] | blocked | blocked |  |  |  |  |
| O=c1c(O)c(-c2ccc(O)c(O)c2)oc2cc(O)cc(O)c12 [quercetin] | blocked | blocked | inhibited | concentration-dependent inhibition | inhibited | concentration-dependent inhibition |
| C[C@@H]1O[C@@H](Oc2c(-c3ccc(O)c(O)c3)oc3cc(O)cc(O)c3c2=O)[C@H](O)[C@H](O)[C@H]1O [quercitrin] | blocked | blocked |  |  |  |  |
